Consider 31 compounds from patent publication US7501430B2 (ArQule, Inc., priority 2006, dated 2009).

The target in the experiment is T1, mutant B-RAF (Homo sapiens, UniProt P15056, V600E).
T1 construct: purchased Upstate (Charlottesville, Va.)
Put plainly: RAF biochemical assay (MEK-1 phosphorylation, anti-phospho MEK1/2 detection). As to conditions: for IC50: read-out: Mutant B-RAF IC50; for inhibition at 10 µM: read-out: Mutant B-RAF % inhibition. Put shortly: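 Detection is by ELISA: after a 30 min room-temperature reaction, plate-captured GST-MEK-1 is probed with anti-phospho MEK1/2, then an AP-tagged secondary antibody with fluorescent Attophos read-out.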

As a reminder, the IC50 is the point on the concentration scale where inhibition reaches its midpoint. What is called inhibition is how much of the control response was suppressed.

T1 sequence (P15056 whole entry V600E): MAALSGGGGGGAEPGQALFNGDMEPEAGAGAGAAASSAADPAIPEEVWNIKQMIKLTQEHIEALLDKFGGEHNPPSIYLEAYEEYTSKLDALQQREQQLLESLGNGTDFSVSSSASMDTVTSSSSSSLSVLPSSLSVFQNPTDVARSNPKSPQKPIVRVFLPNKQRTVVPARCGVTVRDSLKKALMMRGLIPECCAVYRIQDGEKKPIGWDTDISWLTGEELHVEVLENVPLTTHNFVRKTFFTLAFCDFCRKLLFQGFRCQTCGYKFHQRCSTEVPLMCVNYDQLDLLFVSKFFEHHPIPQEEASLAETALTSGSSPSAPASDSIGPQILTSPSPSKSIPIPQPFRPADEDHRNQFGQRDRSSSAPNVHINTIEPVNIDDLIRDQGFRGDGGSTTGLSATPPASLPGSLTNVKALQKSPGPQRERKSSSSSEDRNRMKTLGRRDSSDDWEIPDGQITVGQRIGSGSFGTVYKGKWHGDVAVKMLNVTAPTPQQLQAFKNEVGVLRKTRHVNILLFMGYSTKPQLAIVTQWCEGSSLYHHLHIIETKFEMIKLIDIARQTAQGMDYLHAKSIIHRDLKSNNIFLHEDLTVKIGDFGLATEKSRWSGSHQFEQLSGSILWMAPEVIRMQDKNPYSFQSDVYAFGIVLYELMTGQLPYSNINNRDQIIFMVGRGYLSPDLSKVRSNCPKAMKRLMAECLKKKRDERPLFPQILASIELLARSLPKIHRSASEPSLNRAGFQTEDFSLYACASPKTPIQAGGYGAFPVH

On to `O=S(=O)(c1ccc(Cl)cc1)N1CC[C@@H](Nc2nccc(-c3c(-c4cccc(O)c4)nc4sccn34)n2)C1` [Example 283, 3-{5-[2-({(3R)-1-[(4-chlorophenyl)sulfonyl]pyrro-lidin-3-yl}amino)pyrimidin-4-yl]imidazo[2,1-b][1,3]thiazol-6-yl}phenol], for which the half-inhibitory concentration (IC50) stood at 1600 nM.
Turning to `N#Cc1cccc(-c2nc3sccn3c2-c2ccnc(N[C@@H]3CCNC3)n2)c1` [Example 284, 3-(5-{2-[(3R)-pyrrolidin-3-ylamino]pyrimidin-4-yl}imidazo[2,1-b][1,3]thiazol-6-yl)benzonitrile], the inhibition at 10 µM is 61%.
On to `N#Cc1cccc(-c2nc3sccn3c2-c2ccnc(N[C@@H]3CCN(S(=O)(=O)c4ccc(Cl)cc4)C3)n2)c1` [Example 285, 3-{5-[2-({(3R)-1-[(4-chlorophenyl)sulfonyl]pyrrolidin-3-yl}amino)pyrimidin-4-yl]imidazo[2,1-b][1,3]thiazol-6-yl}benzonitrile], for which the inhibition at 10 µM worked out at 35%.
As to `Fc1ccc(-c2nc3sccn3c2-c2ccnc(NC3CNC3)n2)cc1` [Example 287, N-azetidin-3-yl-4-[6-(4-fluorophenyl)imidazo[2,1-b][1,3]thiazol-5-yl]pyrimidin-2-amine], the IC50 turned out to be 2490 nM.
For the compound `O=S(=O)(c1ccc(Cl)cc1)N1CCC[C@@H](Nc2nccc(-c3c(-c4cccc(O)c4)nc4sccn34)n2)C1` [Example 288, 3-{5-[2-({(3R)-1-[(4-chlorophenyl)sulfonyl]piperidin-3-yl}amino)pyrimidin-4-yl]imidazo[2,1-b][1,3]thiazol-6-yl}phenol], the IC50 stood at 2 nM.
With `CC(=O)N1CCC(Nc2nccc(-c3c(-c4ccc(F)cc4)nc4sccn34)n2)CC1` [Example 291, N-(1-acetylpiperidin-4-yl)-4-[6-(4-fluorophenyl)imidazo[2,1-b][1,3]thiazol-5-yl]pyrimidin-2-amine], the inhibition at 10 µM was 41%.
Same read-out and setting: under `Fc1ccc(CN2CCC(Nc3nccc(-c4c(-c5ccc(F)cc5)nc5sccn45)n3)CC2)cc1` [Example 293, N-[1-(4-fluorobenzyl)piperidin-4-yl]-4-[6-(4-fluorophenyl)imidazo[2,1-b][1,3]thiazol-5-yl]pyrimidin-2-amine] stands 14%.
Regarding `CCNC(=O)N1CCC(Nc2nccc(-c3c(-c4ccc(F)cc4)nc4sccn34)n2)CC1` [Example 294, N-ethyl-4-({4-[6-(4-fluorophenyl)imidazo[2,1-b][1,3]thiazol-5-yl]pyrimidin-2-yl}amino)piperidine-1-carboxamide], the IC50 was determined as 41 nM.
Take `O=C(Nc1ccc(F)cc1)N1CCC(Nc2nccc(-c3c(-c4ccc(F)cc4)nc4sccn34)n2)CC1` [Example 295, N-(4-fluorophenyl)-4-({4-[6-(4-fluorophenyl)imidazo[2,1-b][1,3]thiazol-5-yl]pyrimidin-2-yl}amino)piperidine-1-carboxamide]: the inhibition at 10 µM was 49%.
Still for that read-out and setting: under `CS(=O)(=O)N1CCC(Nc2nccc(-c3c(-c4ccc(F)cc4)nc4occn34)n2)CC1` [Example 299, 4-[6-(4-fluorophenyl)imidazo[2,1-b][1,3]oxazol-5-yl]-N-[1-(methylsulfonyl)piperidin-4-yl]pyrimidin-2-amine] stands 55%; under `Fc1ccc(-c2nc3occn3c2-c2ccnc(NC3CCNCC3)n2)c(F)c1` [Example 300, 4-[6-(2,4-difluorophenyl)imidazo[2,1-b][1,3]oxazol-5-yl]-N-piperidin-4-ylpyrimidin-2-amine], 65%.
Still for that read-out and setting: under `Fc1ccc(-c2nc3occn3c2-c2ccnc(NC3CCNCC3)n2)c(Cl)c1` [Example 301, 4-[6-(2-chloro-4-fluorophenyl)imidazo[2,1-b][1,3]oxazol-5-yl]-N-piperidin-4-ylpyrimidin-2-amine] stands 39%.
On the same count and under the same terms, under `CC(=O)N1CCC(Nc2nccc(-c3c(-c4ccccc4Cl)nc4occn34)n2)CC1` [Example 302, N-(1-acetylpiperidin-4-yl)-4-[6-(2-chlorophenyl)imidazo[2,1-b][1,3]oxazol-5-yl]pyrimidin-2-amine] stands 39%; under `CC(=O)N1CCC(Nc2nccc(-c3c(-c4ccccc4C)nc4occn34)n2)CC1` [Example 303, N-(1-acetylpiperidin-4-yl)-4-[6-(2-methylphenyl)imidazo[2,1-b][1,3]oxazol-5-yl]pyrimidin-2-amine], 42%.
As for `Cc1ccccc1-c1nc2occn2c1-c1ccnc(NC2CCNCC2)n1` [Example 304, 4-[6-(2-methylphenyl)imidazo[2,1-b][1,3]oxazol-5-yl]-N-piperidin-4-ylpyrimidin-2-amine], the inhibition at 10 µM was 56%.
Same read-out and setting: under `CC(=O)N1CCC(Nc2nccc(-c3c(-c4ccc(F)cc4Cl)nc4occn34)n2)CC1` [Example 305, N-(1-acetylpiperidin-4-yl)-4-[6-(2-chloro-4-fluorophenyl)imidazo[2,1-b][1,3]oxazol-5-yl]pyrimidin-2-amine] stands 47%; under `FC(F)(F)c1cccc(-c2nc3occn3c2-c2ccnc(NC3CCNCC3)n2)c1` [Example 306, N-piperidin-4-yl-4-{6-[3-(trifluoromethyl)phenyl]imidazo[2,b][1,3]oxazol-5-yl}pyrimidin-2-amine], 32%.
Take `Clc1ccccc1-c1nc2occn2c1-c1ccnc(NC2CCNCC2)n1` [Example 307, 4-[6-(2-chlorophenyl)imidazo[2,1-b][1,3]oxazol-5-yl]-N-piperidin-4-ylpyrimidin-2-amine]: the inhibition at 10 µM is 55%.
On to `Cc1ccccc1-c1nc2occn2c1-c1ccnc(NC2CCN(S(C)(=O)=O)CC2)n1` [Example 308, 4-[6-(2-methylphenyl)imidazo[2,1-b][1,3]oxazol-5-yl]-N-(1-(methylsulfonyl)piperidin-4-yl]pyrimidin-2-amine], for which the inhibition at 10 µM is 45%.
Still for that read-out and setting: under `CS(=O)(=O)N1CCC(Nc2nccc(-c3c(-c4cccc(C(F)(F)F)c4)nc4occn34)n2)CC1` [Example 309, N-[1-(methylsulfonyl)piperidin-4-yl]-4-{6-(3-(trifluoromethyl)phenyl]imidazo[2,b][1,3]oxazol-5-yl)pyrimidin-2-amine] stands 33%; under `CC(=O)N1CCC(Nc2nccc(-c3c(-c4ccc(F)cc4F)nc4occn34)n2)CC1` [Example 310, N-(1-acetylpiperidin-4-yl)-4-[6-(2,4-difluorophenyl)imidazo[2,1-b][1,3]oxazol-5-yl]pyrimidin-2-amine], 33%; under `CS(=O)(=O)N1CCC(Nc2nccc(-c3c(-c4ccccc4Cl)nc4occn34)n2)CC1` [Example 311, 4-[6-(2-chlorophenyl)imidazo[2,1-b][1,3]oxazol-5-yl]-N-[1-(methylsulfonyl)piperidin-4-yl]pyrimidin-2-amine], 61%.
With `CS(=O)(=O)N1CCC(Nc2nccc(-c3c(-c4ccc(F)cc4Cl)nc4occn34)n2)CC1` [Example 312, 4-[6-(2-chloro-4-fluorophenyl)imidazo[2,1-b][1,3]oxazol-5-yl]-N-[1-(methylsulfonyl)piperidin-4-yl]pyrimidin-2-amine], the inhibition at 10 µM was found to be 73%.
`COC(=O)c1ccc(S(=O)(=O)N2CCC[C@@H](Nc3nccc(-c4c(-c5cccc(O)c5)nc5sccn45)n3)C2)cc1` [Example 314, methyl 4-{[(3R)-3-({4-[6-(3-hydroxyphenyl)imidazo[2,1-b][1,3]thiazol-5-yl]pyrimidin-2-yl}amino)piperidin-1-yl]sulfonyl}benzoate]: the IC50 worked out at 30 nM.
On to `O=S(=O)(C1CC1)N1CCC(Nc2nccc(-c3c(-c4cccc(O)c4)nc4sccn34)n2)CC1` [Example 315, 3-[5-(2-{[1-(cyclopropylsulfonyl)piperidin-4-yl]amino}pyrimidin-4-yl)imidazo[2,1-b][1,3]thiazol-6-yl}phenol], for which the IC50 came out at 11 nM.
In the case of `N#Cc1ccc(S(=O)(=O)N2CCC(Nc3nccc(-c4c(-c5cccc(O)c5)nc5occn45)n3)CC2)cc1` [Example 317, 4-{[4-({4-[6-(3-hydroxyphenyl)imidazo[2,1-b][1,3]oxazol-5-yl]pyrimidin-2-yl}amino)piperidin-1-yl]sulfonyl}benzonitrile], the half-inhibitory concentration (IC50) was found to be 22 nM.
On the same count and under the same terms, under `Oc1cccc(-c2nc3sccn3c2-c2ccnc(NC3CCN(CC(O)COc4ccc(Cl)cc4)CC3)n2)c1` (stereo not shown) [Example 318, 3-{5-[2-({1-[3-(4-chlorophenoxy)-2-hydroxypropyl]piperidin-4-yl}amino)pyrimidin-4-yl]imidazo[2,1-b][1,3]thiazol-6-yl}phenol] stands 422 nM.
On the same count and under the same terms, the same measure for `NC(=O)c1ccc(S(=O)(=O)N2CCC(Nc3nccc(-c4c(-c5cccc(O)c5)nc5occn45)n3)CC2)cc1` [Example 319, 4-{[4-({4-[6-(3-hydroxyphenyl)imidazo[2,1-b][1,3]oxazol-5-yl]pyrimidin-2-yl}amino)piperidin-1-yl]sulfonyl)benzamide]: 18 nM; for `O=S(=O)(c1ccc(Cl)cc1)N1CCC(Nc2nccc(-c3c(-c4cccc(O)c4)nc4occn34)n2)CC1` [Example 321, 3-{5-[2-({1-[(4-chlorophenyl)sulfonyl]piperidin-4-yl}amino)pyrimidin-4-yl]imidazo[2,1-b][1,3]oxazol-6-yl}phenol]: 126 nM.
Regarding `O=C(NS(=O)(=O)c1ccc(Cl)cc1)N1CCC(Nc2nccc(-c3c(-c4cccc(O)c4)nc4occn34)n2)CC1` [Example 323, N-[(4-chlorophenyl)sulfonyl]-4-({4-[6-(3-hydroxyphenyl)imidazo[2,1-b][1,3]oxazol-5-yl]pyrimidin-2-yl}amino)piperidine-1-carboxamide], the IC50 amounted to 1220 nM.
In the case of `COc1cccc(-c2nc3occn3c2-c2ccnc(NC3CCN(C(=O)NS(=O)(=O)c4ccc(Cl)cc4)CC3)n2)c1` [Example 324, N-[(4-chlorophenyl)sulfonyl]-4-({4-[6-(3-methoxyphenyl)imidazo[2,1-b][1,3]oxazol-5-yl]pyrimidin-2-yl}amino)piperidine-1-carboxamide], the IC50 was 4000 nM.
